Experimental findings from patent US20250012802A1, “SYSTEMS AND METHODS FOR PREDICTING RESPONSE TO ORAL MINOXIDIL FOR THE TREATMENT OF ANDROGENETIC ALOPECIA” (Follea International, priority 2023, published 2025) are described below.

The subject of the experiment is androgenetic alopecia. The experiment can be described thus: clinical response to oral minoxidil for androgenetic alopecia. The class given is in vivo, human. Also noted: Response: scale not given here. The note with it: for subjects who responded to oral minoxidil: 5 mg men and 1.25 mg women. An excerpt: Clinical trials with minoxidil for the treatment of androgenetic alopecia have shown statistically significant results for maintenance and growth of hair. […] As described herein, the assessment of hair re-growth is based on one or more of the following parameters: patient self assessment, physician assessment using a standardized scale, global photography assessment, hair diameter measurement, average hair length measurement, average hair diameter measurement, and hair weight measurements. The current inventions provide a method of using biochemical variations in minoxidil sulfotransferase activity as a drug response marker for oral and/or topical minoxidil treatment of androgenetic alopecia. Based on the minoxidil sulfotransferase activity level, the method disclosed herein allows a physician or the patient to select the appropriate treatment and dosage thereof for the treatment of androgenetic alopecia.
In one embodiment, the test is conducted by placing a hair follicle in an assay. The hair follicle may be collected prior to minoxidil therapy, or after start of minoxidil therapy. The follicle is placed in a solution containing minoxidil. The assay is then conducted as described above, and is examined to determine whether there is a SULT1A1 response. The results are then used as a predictor for patients who will respond well to minoxidil, and who will respond better to oral minoxidil versus topical application of minoxidil. […] The first column is optical density resulting from the colorimetric testing. The second column indicates response.
A total of 123 subjects recruited. Overall among subjects with OD<0.37 85% responded to oral minoxidil (5 mg men and 1.25 mg women). Overall among subjects with OD>0.37 43% responded to oral minoxidil (5 mg men and 1.25 mg women). This was statistically significant p=0.0088 (Fischer Exact Test). In this cohort, oral minoxidil only worked on 42% of women and 73% of men.

Structures are written as SMILES. Several values for one entry are separate records, joined by “and”; a condition that tells them apart may be missing. Equal values may be shown once.

On to `Nc1cc(N2CCCCC2)nc(N)[n+]1[O-]` [minoxidil], for which the “share of cohort on whom oral minoxidil worked” value (men) was 73% and the “share of cohort on whom oral minoxidil worked” value (women) was 42%. Moreover, under “response of the individual patient with the OD of the same line, 0/1 not defined in the patent”, the Response is 1 (15×) and 0 (11×). The “subjects who responded to oral minoxidil” value runs as follows: (subjects with OD<0.37) 85%; (subjects with OD>0.37) 43%.
